The values below come from patent publication US6140335A, “Use of mizolastine for treating inflammatory diseases associated with 5-lipoxygenase” (Sanofi-Synthelabo, priority 1997, dated 2000).

Assay [1] deals with rat rectocolitis induced by trinitrobenzenesulphonic acid (TNBS). The assay can be described thus: In vivo activity in a model of inflammation of experimental colitis in rats (TNBS). The following applies: 3 mg/kg orally one hour before and one day after TNBS, after 3 days, significant. The protocol:
Mizolastine was studied in a model of rat rectocolitis induced by trinitrobenzenesulphonic acid (TNBS), according to the method described by Morris et al. (Gastroenterology, 96, 795-803, 1989).
The mizolastine is given orally (3 mg/kg) one hour before and one day after the instillation of TNBS (40 mg/kg in 50% ethanol) into the distal part of the colon. After 3 days, measurement of the macroscopic index of the damage, of the oedema/hypertrophy (weight of tissues) and of the myeloperoxidase activity, as a measure of the infiltration of the neutrophils, is carried out. Mizolastine imparts a significant reduction in the damage, in the oedema/hypertrophy (weight of tissues) and in the myeloperoxidase activity of 67%, 57% and 66% respectively at 3 mg/kg.

Assay [2] concerns the target T1, 5-LO isolated from commercial HL60 cells (Homo sapiens, UniProt P09917).
T1 construct: 5-LO isolated from commercial HL60 cells; endogenous in cells; host or cells: HL60
T1 sequence (P09917 1-674): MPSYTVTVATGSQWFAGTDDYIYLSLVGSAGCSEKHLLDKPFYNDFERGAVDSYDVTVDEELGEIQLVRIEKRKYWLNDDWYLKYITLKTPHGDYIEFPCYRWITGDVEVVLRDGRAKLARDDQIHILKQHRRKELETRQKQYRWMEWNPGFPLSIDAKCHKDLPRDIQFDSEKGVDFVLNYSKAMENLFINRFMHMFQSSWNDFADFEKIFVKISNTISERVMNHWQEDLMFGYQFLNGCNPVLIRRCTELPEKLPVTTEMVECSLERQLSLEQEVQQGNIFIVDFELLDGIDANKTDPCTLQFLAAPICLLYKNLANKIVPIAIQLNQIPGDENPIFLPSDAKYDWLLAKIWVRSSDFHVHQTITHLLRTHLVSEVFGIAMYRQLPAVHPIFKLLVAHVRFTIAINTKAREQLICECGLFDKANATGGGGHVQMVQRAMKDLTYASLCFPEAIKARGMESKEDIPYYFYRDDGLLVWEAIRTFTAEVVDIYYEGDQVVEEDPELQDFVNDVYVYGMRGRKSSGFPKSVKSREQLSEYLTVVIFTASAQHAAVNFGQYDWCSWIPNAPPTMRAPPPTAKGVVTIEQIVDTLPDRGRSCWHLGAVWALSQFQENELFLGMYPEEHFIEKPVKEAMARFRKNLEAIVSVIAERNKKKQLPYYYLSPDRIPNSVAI
In words: Inhibition of 5-LO in Man (HL60 5-LO). It is filed as biochemical. The following applies: 5-LO from HL60 cells; arachidonic acid 0.4 μM; 10 min at room temperature; 5-HETE by RIA; read-out: inhibitory concentration (IC50). The protocol:
Mizolastine was tested on 5-LO isolated from commercial HL60 cells. The mizolastine is incubated for 10 minutes at room temperature in the presence of arachidonic acid (0.4 μM) and 5-LO. The experiment is carried out simultaneously in the presence of nordihydrogualaretic acid as reference product. The amount of 5-HETE formed is determined by RIA (Coffrey et al., J. Biol. Chem., 267-270, 1992).

Assay [3] has as its target T2, 5-LO obtained from a preparation of rat leukaemic basophil cells (RBL-1) (Rattus norvegicus, UniProt P12527).
T2 construct: 5-LO obtained from a preparation of rat leukaemic basophil cells (RBL-1); endogenous in cells; host or cells: RBL-1 (rat leukaemic basophil cells)
T2 sequence (P12527 1-673): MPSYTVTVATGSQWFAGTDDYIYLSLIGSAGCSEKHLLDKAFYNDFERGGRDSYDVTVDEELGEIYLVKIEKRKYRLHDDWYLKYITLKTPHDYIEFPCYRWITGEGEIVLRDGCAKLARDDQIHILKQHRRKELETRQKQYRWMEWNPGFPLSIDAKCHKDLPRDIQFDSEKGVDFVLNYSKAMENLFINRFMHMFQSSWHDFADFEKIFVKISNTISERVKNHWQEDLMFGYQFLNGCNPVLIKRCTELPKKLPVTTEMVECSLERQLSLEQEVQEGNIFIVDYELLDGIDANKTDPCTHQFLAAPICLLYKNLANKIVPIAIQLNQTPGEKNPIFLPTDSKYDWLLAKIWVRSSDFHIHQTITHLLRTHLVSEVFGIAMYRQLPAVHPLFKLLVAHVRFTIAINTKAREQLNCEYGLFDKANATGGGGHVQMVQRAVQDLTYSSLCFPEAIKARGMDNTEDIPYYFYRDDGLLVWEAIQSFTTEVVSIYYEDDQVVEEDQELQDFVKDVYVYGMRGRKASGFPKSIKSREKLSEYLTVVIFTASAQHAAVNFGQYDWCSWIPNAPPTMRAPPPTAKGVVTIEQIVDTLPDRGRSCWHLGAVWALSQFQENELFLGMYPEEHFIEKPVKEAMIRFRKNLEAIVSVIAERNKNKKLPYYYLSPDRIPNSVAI
In words: Inhibition of 5-LO in Rats (RBL-1 preparation). It is filed as biochemical. The following applies: rat 5-LO (RBL-1); linoleic acid; 5 min preincubation, 8 min at room temperature; absorption at 234 nm; read-out: inhibitory concentration (IC50). The protocol: The tests were carried out according to the procedure described by R. W. Egan and P. H. Gale in J. Biol. Chem., 260, 1154-1159, 1985, with 5-LO obtained from a preparation of rat leukaemic basophil cells (RBL-1). Mizolastine is incubated with the enzyme for 5 minutes at room temperature and the reaction is initiated by addition of linoleic acid. After incubating for 8 minutes at room temperature, the reaction is stopped by addition of sodium hydroxide and the absorption is read at 234 nm in order to determine the level of 5-HETE.

Assay [4] relates to inflammatory oedema of rat limbs induced by the injection of AA. In words: In vivo activity in a model of inflammation of rat limbs (oedema by injection of AA). To be noted: 0.3 mg/kg orally 2 hours before AA injection; after 4 hours; plethysmography. The procedure:
a) inflammation by injection of AA
Inflammatory oedema of rat limbs induced by the injection of AA is produced and evaluated according to the method of Di Martino et al. (Agents and actions, 21, 303-305, 1987) except that the AA concentration used is 0.3% (v/v).
The mizolastine is given orally 2 hours before the injection of AA. An AA solution, prepared at the time of use in a buffer solution (0.1 ml; 0.2 M carbonate; pH=11.2), is injected into the subplantar part of a rat's right hind limb.
The volume of the inflammatory reaction is measured by plethysmography after 1, 2, 3 and 4 hours.

pIC50: −log10 of the molar value.

Regarding `CN(c1nccc(O)n1)C1CCN(c2nc3ccccc3n2Cc2ccc(F)cc2)CC1` [mizolastine, 2-[[1-[1-[(4-fluorophenyl)methyl]-1H-benzimidazol-2-yl]-4-piperidyl]methylamino]-4-pyrimidinol], the “reduction in the myeloperoxidase activity” value in assay [1] (infiltration of neutrophils) is on record as 66%. Moreover, in assay [1], the “reduction in the damage (macroscopic index)” value came to 67% and the “reduction in the oedema/hypertrophy (weight of tissues)” value was 57%. Moreover, the pIC50 in assay [2] is 4.80. Also, in assay [3], the pIC50 is 5.34. In addition, the “inhibition, relative to the control, of the inflammation induced” value in assay [4] is listed as 55%.
